Laboratory results: patent US11440907B1 (Merck Patent GmbH, priority 2018, dated 2022)

Tests used:
[1] = tested on: β-catenin-TCF-mediated reporter transcription activity in Colo 205 cells; assay: Colo 205 reporter assay (TCF/LEF promoter-driven firefly luciferase); assay type: cell-based; conditions: Homo sapiens; Colo 205 TCF/LEF luciferase reporter, 5 hours after compound addition, 384 well; read-out: Colo205 IC50
From the text: The compounds of the invention described herein were screened using the assay procedure for β-catenin-TCF-mediated reporter transcription activity described below.
Reporter cell lines were generated by stably transfecting cells of cancer cell lines (e.g., colon cancer) with a plasmid reporter construct (From SABiosciences, a QIAGEN company) that includes TCF/LEF promoter driving expression of the firefly luciferase gene. TCF/LEF reporter constructs were made in which TCF/LEF promoter, a promoter with optimal number of TCF/LEF binding sites designed by SABiosciences, was linked upstream of the firefly luciferase gene. This construct could also include a puromycin resistance gene as a selectable marker. This construct could also be used to stably transfect Colo 205 cells, a colon cancer cell line having a mutated APC gene that causes a constitutively active β-catenin. A control cell line was generated using another plasmid construct containing the luciferase gene under the control of a CMV basal promoter which is not activated by β-catenin.
Colo 205 Cultured cells with a stably transfected reporter construct were plated at approximately 10,000 cells per well into 384 well multi-well plates for twenty four hours. The testing compounds were then added to the wells in 2-fold serial dilutions using a twenty micromolar top concentration. A series of control wells for each cell type received only compound solvent. Five hours after the addition of compound, reporter activity for luciferase was assayed, by addition of the SteadyGlo luminescence reagent (Promega). The reporter luminescence activity was measured using Pherastar plate reader (BMG Labtech). Readings were normalized to DMSO only treated cells, and normalized activities were then used in the IC50 calculations. The Colo 205 reporter assay data are summarized in Table 3: A<0.3 μM; 0.3 μM≤B<1.0 μM; 1.0 μM≤C<5.0 μM; D≥5.0 μM.

[2] = tested on: XBP1(u)-luciferase splicing reporter in HepG2 hepatoma cells; assay: HepG2 XBP1 reporter assay (XBP1(u)-Luc); assay type: cell-based
From the text: HepG2 XBP1 Reporter Assay
HepG2 hepatoma cells were transduced with a retrovirus encoding the cDNA for unspliced (u) XBP1, which contains a non-processed intron, fused to the cDNA for firefly luciferase. Upon induction of ER stress, the non-processed intron of XBP1(u) is spliced out by active IRE1alpha endonuclease. The resulting spliced (s) XBP1 is now in frame with luciferase which causes the production of active luciferase protein, resulting in bioluminescence
HepG2 XBP1(u)-Luc cells were plated […] Cultured cells with a stably transfected reporter construct were plated at approximately 30,000 cells per well into 96 well multi-well plates for twenty four hours. The testing compounds were then added to the wells in 3-fold serial dilutions using a twenty seven micromolar top concentration. A series of control wells for each cell type received only compound solvent. Six hours after the addition of compound, reporter activity for luciferase was assayed, by addition of the SteadyGlo luminescence reagent (Promega). The reporter luminescence activity was measured using Pherastar plate reader (BMG Labtech). Readings was normalized to DMSO only treated cells, and normalized activities were then used in the IC50 calculations. The HepG2 XBP1 reporter assay data are summarized in Tables 3-5: A<0.6 μM; 0.6 μM≤B<2.0 μM; 2.0 μM≤C<5.0 μM; D≥5.0 μM.

[3] = Homo sapiens, 6 h, six hours after addition of compound
[4] = Homo sapiens, 6 hours after compound addition, Table 4

IC50 [1] [nM]	IC50 [2, 4] [nM]	Structure (SMILES)	further results
300 to 1000		COC(=O)c1ccc(C2COCCCN2c2cc(C)nc(N)n2)c(Cl)c1 (centres unmarked) [I-292]	
300 to 1000		Cc1cc(N2CCCOCC2c2ccc(F)cc2Cl)nc(N)n1 (racemic) [I-63, (+/−)-4-[3-(2-chloro-4-fluoro-phenyl)-1,4-oxazepan-4-yl]-6-methyl-pyrimidin-2-amine]	
< 300		Cc1cc(N2CCCOCC2c2cc(NC(=O)C(F)(F)F)ccc2Cl)nc(N)n1 (racemic) [I-159, (+/−)-N-[3-[4-(2-amino-6-methyl-pyrimidin-4-yl)-1,4-oxazepan-3-yl]-4-chloro-phenyl]-2,2,2-trifluoro-acetamide]	
300 to 1000		Cc1cc(N2CCCOCC2c2cc(-c3ccn[nH]3)ccc2Cl)nc(N)n1 (racemic) [I-157, (+/−)-4-(3-(2-chloro-5-(1H-pyrazol-5-yl)phenyl)-1,4-oxazepan-4-yl)-6-methyl-pyrimidin-2-amine]	
300 to 1000		Cc1cc(N2CCCCCC2c2ccccc2F)nc(N)n1 (centres unmarked) [I-36, 4-(2-(2-fluorophenyl)azepan-1-yl)-6-methylpyrimidin-2-amine]	
< 300		COc1cc(S(C)(=O)=O)ccc1[C@H]1CCCCCN1c1cc(C)nc(N)n1 (single isomer, unassigned) [I-99, 4-[2-(2-methoxy-4-methylsulfonyl-phenyl)azepan-1-yl]-6-methyl-pyrimidin-2-amine]	
< 300		Cc1cc(N2CCCOCC2c2ccccc2Cl)nc(N)n1 (racemic) [I-19, (+/−)-4-[3-(2-chlorophenyl)-1,4-oxazepan-4-yl]-6-methyl-pyrimidin-2-amine]	
300 to 1000		Cc1cc(N2CCCOCC2c2cc([N+](=O)[O-])ccc2Cl)nc(N)n1 (centres unmarked) [I-72, 4-(3-(2-chloro-5-nitrophenyl)-1,4-oxazepan-4-yl)-6-methylpyrimidin-2-amine]	
< 300		COc1ccc(Cl)c([C@H]2COCCCN2c2cc(C)nc(N)n2)c1 (single isomer, unassigned) [I-138]	
< 300		COc1ccc(OC)c([C@H]2COCCCN2c2cc(C)nc(N)n2)c1 (single isomer, unassigned) [I-101]	
300 to 1000		Cc1cc(N2CCCOCC2c2ccc(-n3cccn3)cc2Cl)nc(N)n1 (racemic) [I-133, (+/−)-4-(3-(2-chloro-4-(1H-pyrazol-1-yl)phenyl)-1,4-oxazepan-4-yl)-6-methylpyrimidin-2-amine]	
300 to 1000		Cc1cc(N2CCCOCC2c2cc([S+](C)[O-])ccc2Cl)nc(N)n1 (racemic) [I-110, (+/−)-4-(3-(2-chloro-5-(methylsulfinyl)phenyl)-1,4-oxazepan-4-yl)-6-methylpyrimidin-2-amine]	
300 to 1000		COc1ccc(OC)c(C2COCCCN2c2cc(C)nc(N)n2)c1 (racemic) [I-93, (+/−)-4-[3-(2,5-dimethoxyphenyl)-1,4-oxazepan-4-yl]-6-methyl-pyrimidin-2-amine]	
< 300		Cc1cc(N2CCCOCC2c2ccccc2F)nc(N)n1 (racemic) [I-32, (+/−)-4-[3-(2-fluorophenyl)-1,4-oxazepan-4-yl]-6-methyl-pyrimidin-2-amine]	
< 300		Cc1cc(N2CCCOC[C@@H]2c2cc(N)ccc2Cl)nc(N)n1 (single isomer, unassigned) [I-87]	
< 300		Cc1cc(N2CCCCC[C@@H]2c2cc(OC(C)C)ccc2Cl)nc(N)n1 (single isomer, unassigned) [I-108]	
300 to 1000		Cc1cc(N2CCCOCC2c2ccc(NS(C)(=O)=O)cc2Cl)nc(N)n1 (racemic) [I-139, (+/−)-N-[4-[4-(2-amino-6-methyl-pyrimidin-4-yl)-1,4-oxazepan-3-yl]-3-chloro-phenyl]methanesulfonamide]	
< 300		Cc1cc(N2CCCOCC2c2cc(O)ccc2Cl)nc(N)n1 (racemic) [I-147, (+/−)-3-[4-(2-amino-6-methyl-pyrimidin-4-yl)-1,4-oxazepan-3-yl]-4-chloro-phenol]	
300 to 1000		Cc1cc(N2CCCOC[C@@H]2c2ccc(C(=O)N(C)C)cc2Cl)nc(N)n1 (single isomer, unassigned) [I-144]	
300 to 1000		COc1cc(F)c(F)cc1C1COCCCN1c1cc(C)nc(N)n1 (centres unmarked) [I-286]	
< 300		Cc1cc(N2CCCOCC2c2ccc(N)cc2Cl)nc(N)n1 (racemic) [I-140, (+/−)-4-[3-(4-amino-2-chloro-phenyl)-1,4-oxazepan-4-yl]-6-methyl-pyrimidin-2-amine]	
		Cc1cc(N2CCCOCC2c2ccc(Cl)cc2C#N)nc(N)n1 [D-107]	IC50 [2, 3]: 600 to 2000 nM
	600 to 2000	Cc1cc(N2CCCOCC2c2cc(S(N)(=O)=O)c(Cl)cc2Cl)nc(N)n1 (centres unmarked) [C-8]	
		Cc1cc(N2CCCOCC2c2cnc(CS(C)(=O)=O)cc2OC(F)F)nc(N)n1 [D-85]	IC50 [2, 3]: 600 to 2000 nM
		Cc1cc(N2CCCOC[C@@H]2c2ccc(CS(C)(=O)=O)nc2OC(F)F)nc(N)n1 [D-93]	IC50 [2, 3]: < 600 nM
	600 to 2000	COc1cc(Cl)c(C2COCCCN2c2cc(C)nc(N)n2)cc1F (centres unmarked) [C-28]	
		COc1cc(Cl)c([C@H]2COCCCN2c2cc(C)nc(N)n2)cc1O [C-95]	IC50 ([2]; 6 hours after compound addition, Table 4): < 600 nM

IC50 [1] [nM]	IC50 [2, 4] [nM]	Structure (SMILES)	further results
		Cc1cc(N2CCCOCC2c2ccc(C(C)(C)S(C)(=O)=O)cc2Cl)nc(N)n1 [D-136]	IC50 [2, 3]: < 600 nM
		Cc1cc(N2CCCOC[C@H]2c2cc(O)c(OC(F)(F)F)cc2Cl)nc(N)n1 [D-184]	IC50 [2, 3]: ≥ 5000 nM
	600 to 2000	COc1cc(C2COCCCN2c2cc(C)nc(N)n2)c(Cl)cc1OCC(N)=O (centres unmarked) [C-97]	
		Cc1cc(N2CCCOC[C@H]2c2ccc(CS(C)(=O)=O)nc2OC(F)F)nc(N)n1 [D-173]	IC50 [2, 3]: ≥ 5000 nM
		Cc1cc(N2CCCOC[C@@H]2c2cc3c(cc2Cl)OCC2(CC2)CO3)nc(N)n1 [D-16]	IC50 [2, 3]: 600 to 2000 nM
		Cc1cc(N2CCCOC[C@@H]2c2cc3c(cc2Cl)NC[C@@](C)(C(=O)O)O3)nc(N)n1 [D-181]	IC50 [2, 3]: ≥ 5000 nM
		Cc1cc(N2CCCOC[C@H]2c2ccc([C@H]3CCCN3)cc2Cl)nc(N)n1 [D-89]	IC50 [2, 3]: 2000 to 5000 nM
		CCc1cc(N2CCCOCC2c2cc(O)c(CS(C)(=O)=O)cc2Cl)nc(N)n1 [D-98]	IC50 [2, 3]: < 600 nM
		CCOc1cc([C@@H]2COCCCN2c2cc(C)nc(N)n2)c(Cl)cc1OCC(N)=O [D-176]	IC50 [2, 3]: ≥ 5000 nM
	600 to 2000	Cc1cc(N2CCCOCC2c2cc3c(cc2Cl)COCO3)nc(N)n1 (centres unmarked) [C-96]	
		Cc1cc(N2CCCOC[C@H]2c2cc(O)c(CS(C)(=O)=O)cc2Cl)nc(N)n1 [D-171]	IC50 [2, 3]: ≥ 5000 nM
	600 to 2000	Cc1cc(Cl)c(C2COCCCN2c2cc(N)nc(N)n2)cc1C (centres unmarked) [C-27]	
	< 600	Cc1cc(N2CCCOC[C@@H]2c2cc3c(cc2Cl)OCCO3)nc(N)n1 [C-70]	
	< 600	Cc1cc(N2CCCOCC2c2ccc(CS(C)(=O)=O)cc2OC(F)(F)F)nc(N)n1 (centres unmarked) [C-113]	
	600 to 2000	Cc1cc(N2CCCOCC2c2cc(F)c(-c3ccncc3)cc2Cl)nc(N)n1 (centres unmarked) [C-48]	
		Cc1cc(N2CCCOC[C@@H]2c2ccc(C3CCNCC3)cc2Cl)nc(N)n1 [D-66]	IC50 [2, 3]: 2000 to 5000 nM
	600 to 2000	Cc1cc(N2CCCOC[C@@H]2c2cc(Cl)c(O)cc2Cl)nc(N)n1 [C-87]	
		COC(=O)c1cc(C2COCCCN2c2cc(C)nc(N)n2)c(Cl)cc1C#N [D-77]	IC50 [2, 3]: 600 to 2000 nM
	2000 to 5000	Cc1cc(N2CCCOC[C@@H]2c2ccc(OC[C@@H](O)CO)cc2Cl)nc(N)n1 [C-64, (S)-3-{4-[(S)-4-(2-Amino-6-methyl-pyrimidin-4-yl)-[1,4]oxazepan-3-yl]-3-chloro-phenoxy}-propane-1,2-diol]	
	600 to 2000	CCOC(=O)COc1cc(Cl)c(C2COCCCN2c2cc(C)nc(N)n2)cc1OC (centres unmarked) [C-89]	
	600 to 2000	Cc1cc(N2CCCOCC2c2cc3c(cc2Cl)CCC3)nc(N)n1 (centres unmarked) [C-26]	
		CCc1cc(N2CCCOCC2c2cc(O)c(S(C)(=O)=O)cc2Cl)nc(N)n1 [D-87]	IC50 [2, 3]: ≥ 5000 nM
	< 600	Cc1cc(N)nc(N2CCCOCC2c2cc3c(cc2Cl)CCN3C)c1 (centres unmarked) [C-54]	
	≥ 5000	Cc1cc(N2CC3(CC3)COCC2c2ccc(CS(C)(=O)=O)cc2Cl)nc(N)n1 (centres unmarked) [C-62, 4-[7-(2-Chloro-4-methanesulfonylmethyl-phenyl)-5-oxa-8-aza-spiro[2.6]non-8-yl]-6-methyl-pyrimidin-2-ylamine]	
	< 600	COc1cc(C2COCCCN2c2cc(C)nc(N)n2)c(Cl)cc1N (centres unmarked) [C-76]	
	≥ 5000	COc1cc(Cl)c([C@@H]2COCCCN2c2cc(C)nc(N)n2)cc1OC [C-81]	
